Experimental data: patent publication US20250183494A1, “Standardized Bioflavonoid Composition for Regulation of Homeostasis of Host Defense Mechanism” (priority 2021, published 2025)
Values joined by “and” are separate entries in the source; they are usually repeats but may differ in a detail not shown here. Equal values may be shown once.

Experiments:
[1] = tested on: LPS-induced sepsis; assay: LPS-induced sepsis model, composition vs constituents, Colby synergy; format: in vivo, CD-1 mice
Method: On the 8th day, mice were injected intraperitoneally (i.p.) with 25 mg/kg LPS dissolved in PBS at 10 mL/kg. Mice in the UP894-II-treated group received a daily dose of UP894-II at 250 mg/kg. All mice continued to receive the treatment daily for the duration of study, which was completed on the 6th day post LPS injection. Following a median lethal dose of LPS (25 mg/kg) by i.p. administration, animals are expected to develop sepsis within a few hours. If untreated, mice would start to die within 24 hours. Animals were observed hourly. In the current study, we monitored the mice for 6 days after LPS injection.
For the blending of these plant extracts to have unexpected synergy, the observed inhibition needs to be greater than the calculated value.
The LPS-induced survival study was utilized to evaluate possible synergy or unexpected effects of extracts from Scutellaria and Acacia, when formulated together in a specific ratio, using Colby's method.

[2] = tested on: IL-1β; assay: LPS-induced acute lung injury, serum IL-1β ELISA; format: in vivo, Sprague Dawley rats; details: UP446 250 mg/kg, SB 500 mg/kg
Method: The presence of IL-1β in undiluted rat serum was measured using the Rat IL-1β Quantikine ELISA kit from RandD Systems (product #: RLB00) as follows: undiluted serum was added to a microplate coated with IL-1β antibody. […] The washing was repeated, and enzyme substrate was added to the plate.

[3] = tested on: LPS-induced acute lung injury; assay: LPS-induced acute lung injury, lung histopathology (H&E); format: in vivo, Sprague Dawley rats; details: UP446 high dose 250 mg/kg, Sodium Butyrate 500 mg/kg
Method: The severity of lung damage as a result of intratracheal LPS was assessed using HandE-stained lung tissue. The left lobe of the lung was used for the histopathology analysis.

[4] = tested on: TNF-α; assay: LPS-induced acute lung injury, serum TNF-α ELISA; format: in vivo, Sprague Dawley rats; details: UP446 250 mg/kg, SB 500 mg/kg
Method: The presence of TNF-α in undiluted rat serum was measured using the rat TNF-α Quantikine ELISA kit from RandD Systems (product #: RTA00) as follows: undiluted serum was added to a microplate coated with TNF-α antibody. […] The washing was repeated, and enzyme substrate was added to the plate.

[5] = tested on: LPS-induced endotoxemia and sepsis; assay: LPS-induced sepsis model, survival (UP446 study); format: in vivo, CD-1 mice
Source text: This model used survival rate of animals as the end point measurement (Wang et al., 1999). Lipopolysaccharide (LPS) is an integral component of the outer membrane of gram-negative bacteria and a major contributing factor in the initiation of a generalized inflammatory process that may lead to endotoxin shock. It is a state mediated principally by macrophages/monocytes and is attributed to excessive production of several early phase cytokines such as TNF-α, IL-1, IL-6 and gamma interferon (IFN-γ) as well as a late-stage mediator, HMGB1. Following a median lethal dose of LPS (25 mg/kg) administration dissolved in phosphate-buffered saline (PBS; Lifeline, Lot #07641), animals develop endotoxemia and HMGB1 would be detected in the serum at 8 hours and reach to a peak and plateau levels from 16 to 32 hours after LPS. If untreated, mice would start to die within 24 hours. In the current study, we monitored the mice for 4 days after LPS injection. […] The following groups were included in the study:
In this model, mice were pretreated with bioflavonoid composition—UP446, illustrated in the Example 4, for a week (7 days) before lethal dose intraperitoneal injection of LPS (E. coli, 055:B5; Sigma, St. Louis, MO; Lot #081275) at 25 mg/kg with a 10 mL/kg PBS volume. Animals were observed hourly. Given the fact that sodium butyrate improved LPS-induced injury in mice through suppression of HMGB1 release, we chose this compound as a positive control for our study (Li et al., 2018).

[6] = SB 500, UP894-II 250, RM405 200, RM406 50 mg/kg
[7] = SB 500, UP894-II 250, RM405 200, RM406 50 mg/kg, listed as SB
[8] = per interval, SB 500, UP894-II 250, RM405 200, RM406 50 mg/kg oral, N=13
[9] = cumulative, LPS 25 mg/kg i.p., UP446 250, Sodium Butyrate 500 mg/kg oral, N=8

**Q.** For `CCCC(=O)[O-].[Na+]` [Sodium Butyrate], which “Mortality rate, 0 hr” value [1, 6] is on record?
**A.** The value was 0.00%.

**Q.** What about the “Mortality rate, 24 hr post LPS” value [1, 6] of the same compound?
**A.** The value was 15.38%.

**Q.** What about the “Mortality rate, 36 hr post LPS” value [1, 6] of the same compound?
**A.** The value was 46.15%.

**Q.** What about the “Mortality rate, 48 hr post LPS” value [1, 6] of the same compound?
**A.** Its value is 53.85%.

**Q.** What about the “Mortality rate, 60 hr post LPS” value [1, 6] of the same compound?
**A.** Its value is 61.54%.

**Q.** What about the “Mortality rate, 72 hr post LPS” value [1, 6] of the same compound?
**A.** The value was 61.54%.

**Q.** And the “Mortality rate, 96 hr post LPS” value [1, 6]?
**A.** The value was 69.23%.

**Q.** What about the “Mortality rate, 120 hr post LPS” value [1, 6] of the same compound?
**A.** The value was 69.23%.

**Q.** And the “Mortality rate, 144 hr post LPS (end of observation)” value [1, 6]?
**A.** Its value is 69.23%.

**Q.** What about the “Survival rate, 0 hr” value [1, 6] of the same compound?
**A.** Its value is 100.0%.

**Q.** And the “Survival rate, 24 hr post LPS” value [1, 6]?
**A.** The value was 84.6%.

**Q.** And the “Survival rate, 48 hr post LPS” value [1, 6]?
**A.** Its value is 46.2%.

**Q.** What about the “Survival rate, 60 hr post LPS” value [1, 6] of the same compound?
**A.** Its value is 38.5%.

**Q.** And the “Survival rate, 96 hr post LPS” value [1, 6]?
**A.** The value was 30.8%.

**Q.** What about the “Survival rate, 120 hr post LPS” value [1, 6] of the same compound?
**A.** The value was 30.8%.

**Q.** What about the “Survival rate, 144 hr post LPS (end of observation)” value [1, 6] of the same compound?
**A.** The value was 30.8%.

**Q.** And the “Survival rate, 36 hr post LPS” value [1, 7]?
**A.** The value was 53.9% and 53.8%.

**Q.** And the “Survival rate, 72 hr post LPS” value [1, 7]?
**A.** Its value is 38.5%.

**Q.** And the “Number of deceased animals post LPS, 24 hours” value [1, 8]?
**A.** Its value is 2.

**Q.** And the “Number of deceased animals post LPS, 36 hours” value [1, 8]?
**A.** Its value is 4.

**Q.** What about the “Number of deceased animals post LPS, 48 hours” value [1, 8] of the same compound?
**A.** Its value is 1.

**Q.** What about the “Number of deceased animals post LPS, 60 hours” value [1, 8] of the same compound?
**A.** Its value is 1.

**Q.** What about the “Number of deceased animals post LPS, 72 hours” value [1, 8] of the same compound?
**A.** The value was 0.

**Q.** And the “Number of deceased animals post LPS, 96 hours” value [1, 8]?
**A.** The value was 1.

**Q.** What about the “Number of deceased animals post LPS, 120 hours” value [1, 8] of the same compound?
**A.** The value was 0.

**Q.** And the “Number of deceased animals post LPS, 144 hours” value [1, 8]?
**A.** The value was 0.

**Q.** And the Survived ([1]; through 144 hours post LPS, N=13)?
**A.** The Survived was 4.

**Q.** And the “Reduction in serum IL-1β level vs vehicle” value [2]?
**A.** Its value is 65.3%.

**Q.** What about the “Infiltration of PMN cell, score 0-4” value [3] of the same compound?
**A.** The value was 2.75 ± 0.78.

**Q.** And the “Overall Lung Damage Severity, score 0-4” value [3]?
**A.** The value was 3.05 ± 0.42.

**Q.** What about the “Pulmonary Edema, score 0-4” value [3] of the same compound?
**A.** Its value is 2.35 ± 0.95.

**Q.** What about the “Reduction in serum TNF-α level vs vehicle control” value [4] of the same compound?
**A.** Its value is 67.9%.

**Q.** What about the Survival rate ([5]; 48 hours after LPS injection, UP446 250, SB 500 mg/kg) of the same compound?
**A.** The Survival rate was “half of the animals were deceased”.

**Q.** What about the “# of Death after LPS, 24 hr” value [5, 9] of the same compound?
**A.** The value was 2.

**Q.** And the “# of Death after LPS, 32 hr” value [5, 9]?
**A.** Its value is 3.

**Q.** And the “# of Death after LPS, 34 hr” value [5, 9]?
**A.** The value was 3.

**Q.** And the “# of Death after LPS, 48 hr” value [5, 9]?
**A.** The value was 4.

**Q.** What about the “# of Death after LPS, 58 hr” value [5, 9] of the same compound?
**A.** Its value is 4.

**Q.** What about the “# of Death after LPS, 72 hr” value [5, 9] of the same compound?
**A.** The value was 4.

**Q.** What about the “# of Death after LPS, 82 hr” value [5, 9] of the same compound?
**A.** Its value is 4.
